Structures are written as SMILES. “And” between values parts separate entries of the source, which are not always exact repeats. Equal values may be shown once.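 1) Cells in 96-well plates. 2) Compound, 48 h, 5 concentrations. 3) Linear interpolation between surrounding doses. 4) Unreached endpoint = highest concentration. GI50 marks 50% less growth. Definition used: TGI = concentration required for complete inhibition of growth.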

This is an account of results in PubChem BioAssay (NCI).

Some test systems named below: A498 renal; A549 NSCLC; HOP-92 NSCLC; K-562 leukemia; MALME-3M melanoma; NCI-H23 lung; SK-MEL-5 melanoma; SNB-75 CNS.
Test in all cases: DTP human tumour cell line panel, 48 h

The TGI is the concentration giving total growth inhibition. Lower therefore signals more potent growth arrest. `Cc1cc(Cl)ccc1N=C1NC(=O)C(CC(=O)Nc2cccc(Cl)c2)S1` (stereo not given): the TGI in the assay on A498 renal was 92.4 µM; with A549 NSCLC, more than 100 µM; with HOP-92 NSCLC it was 69.8 µM; in the assay on K-562 leukemia, more than 100 µM; in the assay on MALME-3M melanoma, more than 100 µM; in the assay with NCI-H23 lung, more than 100 µM. In addition, the total growth inhibition concentration (TGI) in the assay on SK-MEL-5 melanoma and in the assay with SNB-75 CNS was more than 100 µM in each case.
For the compound `O=P(CN1CCOCC1)(c1ccccc1)c1ccccc1`, the concentration for total growth inhibition (TGI) in the assay with A498 renal, in the assay on A549 NSCLC, in the assay on HOP-92 NSCLC, with K-562 leukemia, in the assay with MALME-3M melanoma and in the assay with NCI-H23 lung was more than 100 µM throughout. Further, the total growth inhibition concentration (TGI) in the assay on SK-MEL-5 melanoma and with SNB-75 CNS was more than 100 µM each time.
For the compound `COC(=O)CC1(O)C(=O)OCc2c1cc1n(c2=O)Cc2c-1nc1ccccc1c2OC` (stereo not given), the total growth inhibition concentration (TGI) in the assay with A498 renal was 11.5 µM; in the assay with A549 NSCLC, more than 100 µM; with HOP-92 NSCLC, 92.2 µM; with K-562 leukemia it was more than 100 µM; in the assay on MALME-3M melanoma, more than 100 µM; in the assay on NCI-H23 lung it was 1.68 µM. Also, the results for the TGI with SK-MEL-5 melanoma and in the assay with SNB-75 CNS were 2.74 µM and 3.56 µM, respectively.
In the case of `COc1ccc(/C=C/C(=O)c2c(-c3ccccc3)nn(C)c(=O)c2N2CC2C)cc1` (stereo not given), the TGI in the assay with A498 renal is 80.7 µM; in the assay with A549 NSCLC it was more than 100 µM; in the assay with HOP-92 NSCLC, more than 100 µM; with K-562 leukemia, more than 100 µM; in the assay with MALME-3M melanoma, more than 100 µM; in the assay with NCI-H23 lung, 50.7 µM. The TGI with SK-MEL-5 melanoma was more than 100 µM; with SNB-75 CNS, 73.9 µM.
As to `COC(=O)c1c(C(=O)OC)c(-c2ccccc2)n(-c2ccccc2)c(=O)c1-c1ccccc1`, the concentration for total growth inhibition (TGI) in the assay on A498 renal is more than 100 µM; with A549 NSCLC it was more than 100 µM; in the assay with HOP-92 NSCLC, 83 µM; with K-562 leukemia it was more than 100 µM; with MALME-3M melanoma it was more than 100 µM; in the assay on NCI-H23 lung it was more than 100 µM. In addition, the TGI in the assay on SK-MEL-5 melanoma was more than 100 µM; with SNB-75 CNS, 64 µM.
On to `CC(C)c1ccc(O)c(Cc2cc(C(C)C)cc(Cc3cc(C(C)C)ccc3O)c2O)c1`, for which the total growth inhibition concentration (TGI) was 2.82 µM in the assay on A498 renal; 3.96 µM with A549 NSCLC; 3.33 µM in the assay with HOP-92 NSCLC; 4.78 µM in the assay with K-562 leukemia; 2.82 µM with MALME-3M melanoma; 3.15 µM in the assay on NCI-H23 lung. In addition, the TGI is 3.15 µM with SK-MEL-5 melanoma and 5.03 µM in the assay on SNB-75 CNS.
For orientation: GI50 means the concentration giving 50% growth inhibition. With `CC1[C@@]2(CCC(C)(C)O2)O[C@@H]2C=C3C4CCC5Cc6nc7c(nc6C[C@@]5(C)C4C[C@H](O)[C@@]3(C)[C@]12O)CC1CCC2C3=C[C@H]4O[C@@]5(O[C@@](C)(CO)C[C@@H]5O)C(C)[C@@]4(O)[C@]3(C)[C@@H](O)CC2[C@]1(C)C7` (stereo not given in full), the concentration for 50% growth inhibition (GI50) is 0.00106 µM in the assay on A498 renal; 0.0028 µM with A549 NSCLC; 0.00228 µM in the assay on HOP-92 NSCLC; 0.0103 µM in the assay on K-562 leukemia; 0.0101 µM in the assay with MALME-3M melanoma; 0.00308 µM in the assay with NCI-H23 lung. Further, the 50% growth inhibitory concentration (GI50) in the assay with SK-MEL-5 melanoma was 0.0165 µM; with SNB-75 CNS, less than 0.000365 µM. The total growth inhibition concentration (TGI) was 0.14 µM and 0.0426 µM in the assay on A498 renal; 0.711 µM with A549 NSCLC; 0.44 µM and 0.445 µM with K-562 leukemia; 0.37 µM and 0.0841 µM in the assay on SK-MEL-5 melanoma.
For the compound `Cc1cc(N(CCC#N)CCC#N)ccc1/C=C(\NC(=O)/C=C/c1ccccc1)C(=O)Nc1ccccc1Cl`, the TGI in the assay on A498 renal is more than 100 µM; in the assay with A549 NSCLC, more than 100 µM; in the assay with HOP-92 NSCLC, 94.5 µM; in the assay with K-562 leukemia it was more than 100 µM; in the assay on MALME-3M melanoma, more than 100 µM; in the assay on NCI-H23 lung, more than 100 µM. In the assay on SK-MEL-5 melanoma, this compound gave a TGI of more than 100 µM.
For `C[N+](C)(C)CC1CCC(C[N+](C)(C)C)C1=NO` (stereo not given), the TGI in the assay on A498 renal, in the assay on A549 NSCLC, in the assay with K-562 leukemia, in the assay with MALME-3M melanoma, with NCI-H23 lung and with SK-MEL-5 melanoma was more than 100 µM in each case. Besides, the TGI with SNB-75 CNS is more than 100 µM.
For `COC(=O)C1=NC(=S)NC(c2ccccc2)C1c1nc2ccccc2o1` (stereo not given), the total growth inhibition concentration (TGI) in the assay with A498 renal, in the assay with A549 NSCLC, with HOP-92 NSCLC, in the assay on K-562 leukemia, in the assay with MALME-3M melanoma and with NCI-H23 lung was more than 50 µM in each case.
Take `FC(F)(F)c1ccccc1C1SCc2nc3ccccc3n21` (stereo not given): the total growth inhibition concentration (TGI) was 94.4 µM with A498 renal; more than 100 µM with A549 NSCLC; 53.3 µM with HOP-92 NSCLC; more than 100 µM in the assay on K-562 leukemia; more than 100 µM in the assay with MALME-3M melanoma; more than 100 µM with NCI-H23 lung. This compound also had a total growth inhibition concentration (TGI) in the assay with SNB-75 CNS of more than 100 µM.
In the case of `CCOc1ccc(NC(=O)CC2SC(=Nc3ccc(C)cc3)NC2=O)cc1` (stereo not given), the concentration for total growth inhibition (TGI) in the assay on A498 renal, with A549 NSCLC, in the assay with MALME-3M melanoma, with NCI-H23 lung, with SK-MEL-5 melanoma and in the assay with SNB-75 CNS was more than 100 µM each time.
`Cc1cc(NCCCCCCCNc2cc(C)nc3cc(N)ccc23)c2ccc(N)cc2n1`: the TGI was more than 100 µM with A498 renal; more than 100 µM with A549 NSCLC; 26.1 µM in the assay with K-562 leukemia; more than 100 µM in the assay on MALME-3M melanoma; more than 100 µM in the assay with NCI-H23 lung; more than 100 µM in the assay on SK-MEL-5 melanoma. The compound also showed a total growth inhibition concentration (TGI) in the assay with SNB-75 CNS of more than 100 µM.
